Data on 15 compounds can be found in patent US8530478B2, “Piperazine derivatives used as CAV2.2 calcium channel modulators” (Convergence Pharmaceuticals Limited, priority 2008, dated 2013).

Molecules are shown by their SMILES. Where a name gives a salt, the structure may show the parent alone. A value given as a limit tells only on which side of the number the result lay.

The target in this test is T1, hCav2.2 (Homo sapiens, UniProt Q00975).
T1 construct: expressed in transfected cells; plasmids pCIN5-hCav2.2, pCIH-hCav β3, pCIP-α2δ1
T1 sequence (Q00975 whole entry): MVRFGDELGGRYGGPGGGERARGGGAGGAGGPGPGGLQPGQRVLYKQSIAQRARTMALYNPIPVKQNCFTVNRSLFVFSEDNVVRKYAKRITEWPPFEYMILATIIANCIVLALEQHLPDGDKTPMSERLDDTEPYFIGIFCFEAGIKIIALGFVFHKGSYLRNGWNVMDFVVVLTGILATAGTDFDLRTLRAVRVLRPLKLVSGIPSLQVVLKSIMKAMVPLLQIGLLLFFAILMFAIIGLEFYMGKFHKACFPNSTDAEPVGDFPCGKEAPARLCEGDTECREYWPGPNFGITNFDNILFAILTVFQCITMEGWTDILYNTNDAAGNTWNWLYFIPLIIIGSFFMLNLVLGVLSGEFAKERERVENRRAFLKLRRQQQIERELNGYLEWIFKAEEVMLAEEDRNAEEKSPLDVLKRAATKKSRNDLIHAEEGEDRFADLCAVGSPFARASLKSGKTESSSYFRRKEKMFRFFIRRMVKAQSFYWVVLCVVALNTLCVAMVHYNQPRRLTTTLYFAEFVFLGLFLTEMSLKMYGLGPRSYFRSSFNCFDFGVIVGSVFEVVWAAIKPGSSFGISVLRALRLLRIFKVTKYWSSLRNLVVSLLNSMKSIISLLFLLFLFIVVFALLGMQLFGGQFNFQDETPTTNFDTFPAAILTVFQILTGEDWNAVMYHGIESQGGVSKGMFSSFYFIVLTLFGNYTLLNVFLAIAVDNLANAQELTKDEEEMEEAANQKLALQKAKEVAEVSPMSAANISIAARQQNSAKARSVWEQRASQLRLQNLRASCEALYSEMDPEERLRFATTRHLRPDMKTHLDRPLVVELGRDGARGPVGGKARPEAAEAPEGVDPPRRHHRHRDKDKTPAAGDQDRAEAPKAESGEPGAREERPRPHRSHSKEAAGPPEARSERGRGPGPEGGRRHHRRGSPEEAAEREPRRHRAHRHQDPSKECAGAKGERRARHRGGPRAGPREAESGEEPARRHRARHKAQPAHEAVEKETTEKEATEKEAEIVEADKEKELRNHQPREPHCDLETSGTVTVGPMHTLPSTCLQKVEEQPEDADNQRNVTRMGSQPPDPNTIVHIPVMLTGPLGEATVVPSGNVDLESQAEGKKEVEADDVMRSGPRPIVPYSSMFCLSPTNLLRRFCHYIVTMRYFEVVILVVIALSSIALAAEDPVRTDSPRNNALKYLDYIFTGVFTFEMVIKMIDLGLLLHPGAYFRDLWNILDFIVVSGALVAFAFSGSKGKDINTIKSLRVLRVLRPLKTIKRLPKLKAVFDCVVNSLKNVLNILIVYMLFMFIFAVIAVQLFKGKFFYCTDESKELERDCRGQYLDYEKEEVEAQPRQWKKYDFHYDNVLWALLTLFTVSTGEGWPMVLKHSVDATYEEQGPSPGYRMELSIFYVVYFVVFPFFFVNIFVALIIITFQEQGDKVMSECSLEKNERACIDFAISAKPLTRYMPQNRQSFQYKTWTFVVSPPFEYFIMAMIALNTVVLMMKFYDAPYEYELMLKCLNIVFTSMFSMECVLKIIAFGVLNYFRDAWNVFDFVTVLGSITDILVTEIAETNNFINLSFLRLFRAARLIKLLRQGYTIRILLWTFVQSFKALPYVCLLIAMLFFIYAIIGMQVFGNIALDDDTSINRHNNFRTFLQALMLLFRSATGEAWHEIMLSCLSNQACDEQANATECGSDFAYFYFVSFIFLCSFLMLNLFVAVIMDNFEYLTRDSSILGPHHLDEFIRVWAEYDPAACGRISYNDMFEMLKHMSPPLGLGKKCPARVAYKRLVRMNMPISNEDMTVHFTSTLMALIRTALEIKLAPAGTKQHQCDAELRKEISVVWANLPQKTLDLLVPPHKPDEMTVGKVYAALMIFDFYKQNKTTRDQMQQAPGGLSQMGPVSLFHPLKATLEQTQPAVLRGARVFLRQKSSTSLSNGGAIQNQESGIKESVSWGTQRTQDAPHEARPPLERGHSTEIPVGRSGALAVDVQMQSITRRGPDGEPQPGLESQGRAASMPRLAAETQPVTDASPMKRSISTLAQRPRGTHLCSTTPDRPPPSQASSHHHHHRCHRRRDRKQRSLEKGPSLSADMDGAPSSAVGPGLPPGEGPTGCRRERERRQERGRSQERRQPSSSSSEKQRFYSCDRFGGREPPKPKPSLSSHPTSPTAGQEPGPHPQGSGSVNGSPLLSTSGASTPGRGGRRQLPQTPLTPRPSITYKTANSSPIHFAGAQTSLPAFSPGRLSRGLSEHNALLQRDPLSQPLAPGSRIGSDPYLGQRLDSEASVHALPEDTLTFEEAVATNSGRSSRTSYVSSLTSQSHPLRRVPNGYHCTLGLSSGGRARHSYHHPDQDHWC
T1 sequence (P54284 whole entry partner): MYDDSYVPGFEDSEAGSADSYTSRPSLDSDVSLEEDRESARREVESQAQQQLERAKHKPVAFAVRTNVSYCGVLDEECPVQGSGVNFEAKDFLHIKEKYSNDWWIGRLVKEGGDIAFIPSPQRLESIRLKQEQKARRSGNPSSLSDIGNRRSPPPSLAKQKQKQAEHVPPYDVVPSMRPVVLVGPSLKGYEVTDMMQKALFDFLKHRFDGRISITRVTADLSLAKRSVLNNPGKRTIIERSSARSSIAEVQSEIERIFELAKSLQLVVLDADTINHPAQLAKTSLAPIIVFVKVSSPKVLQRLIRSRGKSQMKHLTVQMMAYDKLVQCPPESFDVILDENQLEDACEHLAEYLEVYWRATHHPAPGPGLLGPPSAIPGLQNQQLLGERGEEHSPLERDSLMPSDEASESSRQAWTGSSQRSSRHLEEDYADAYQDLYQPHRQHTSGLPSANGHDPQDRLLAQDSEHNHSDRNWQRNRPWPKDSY
T1 sequence (P54289 25-956 partner): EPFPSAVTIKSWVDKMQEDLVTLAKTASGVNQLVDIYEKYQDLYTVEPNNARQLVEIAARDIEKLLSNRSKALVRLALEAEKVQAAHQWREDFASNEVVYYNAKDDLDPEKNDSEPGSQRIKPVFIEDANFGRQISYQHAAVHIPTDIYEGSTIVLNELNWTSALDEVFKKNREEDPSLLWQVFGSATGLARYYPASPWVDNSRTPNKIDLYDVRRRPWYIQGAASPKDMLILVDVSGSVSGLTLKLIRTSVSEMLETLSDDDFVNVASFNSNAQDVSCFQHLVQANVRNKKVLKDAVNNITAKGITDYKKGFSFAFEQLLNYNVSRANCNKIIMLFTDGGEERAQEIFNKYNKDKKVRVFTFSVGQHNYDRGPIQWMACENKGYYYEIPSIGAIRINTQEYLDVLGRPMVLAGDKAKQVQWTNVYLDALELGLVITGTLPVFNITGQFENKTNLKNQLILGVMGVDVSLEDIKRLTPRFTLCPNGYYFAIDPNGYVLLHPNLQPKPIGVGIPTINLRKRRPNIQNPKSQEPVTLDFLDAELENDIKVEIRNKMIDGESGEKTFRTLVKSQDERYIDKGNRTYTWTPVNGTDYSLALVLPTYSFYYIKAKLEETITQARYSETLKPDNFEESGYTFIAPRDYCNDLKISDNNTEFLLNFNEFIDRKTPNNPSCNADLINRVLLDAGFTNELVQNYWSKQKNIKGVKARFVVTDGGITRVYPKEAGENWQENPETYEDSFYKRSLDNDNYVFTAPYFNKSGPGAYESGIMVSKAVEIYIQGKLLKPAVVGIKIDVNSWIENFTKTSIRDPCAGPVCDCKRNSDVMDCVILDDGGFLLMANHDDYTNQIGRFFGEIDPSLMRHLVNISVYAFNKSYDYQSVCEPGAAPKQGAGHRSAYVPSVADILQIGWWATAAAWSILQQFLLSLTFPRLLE
T1 sequence (P54289 957-1103 partner): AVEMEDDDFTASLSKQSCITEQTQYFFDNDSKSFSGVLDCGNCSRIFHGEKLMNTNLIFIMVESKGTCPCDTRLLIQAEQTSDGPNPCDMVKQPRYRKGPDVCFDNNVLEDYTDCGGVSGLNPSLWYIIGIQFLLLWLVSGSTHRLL
As to the kind of experiment: hCav2.2 assay (IonWorks planar array electrophysiology, HEK293 stable cell line). The format is cell-based. The conditions noted are these: inhibition of current elicited by the 1st depolarising pulse; HEK293 cells expressing human Cav2.2 α/β3/α2δ1; tested in the form described in the Examples; read-out: mean pIC50 (tonic pIC50) (converted). How it is done:
Compounds of the invention may be tested for in vitro biological activity in the hCav2.2 assay in accordance with the following studies:
Stable cell lines expressing the human Cav2.2 α (α1B) subunit, along with the human β3 and α2δ1 auxiliary subunits were created following sequential transfection and selection of human embryonic kidney (HEK293) cells. HEK293 cells were cultured in Dulbecco's modified Eagles media/F12 media (Invitrogen, Cat # 041-95750V) containing 10% foetal bovine serum, with added L-glutamine (2 mM; Invitrogen, Cat # 25030-024) and non-essential amino acids (5%; Invitrogen, Cat # 11140-035). Initially HEK293 cells were transfected with two plasmid vectors for expression of the hCav2.2 α subunit (pCIN5-hCav2.2 which carries a neomycin resistance marker) and the hCav β3 subunit (pCIH-hCav β3 which carries a hygromycin resistance marker). Clonal cell lines were isolated following selection in media supplemented with 0.4 mg ml^−1 Geneticin G418 (Invitrogen, Cat # 10131-027) and 0.1 mg ml^−1 hygromycin (Invitrogen, Cat # 10687-010). These clonal cell lines were assessed for Cav2.2 α/β3-mediated current expression using the IonWorks planar array electrophysiology technology (described below). A clonal line was identified that gave a reasonable level of functional Cav2.2 α/β3 current expression. This cell line was transfected with a plasmid vector for expression of the human α2δ1 subunit (pCIP-α2δ1 which carries a puromycin resistance marker) and clonal cell lines isolated following selection in media containing 0.62 μg ml^−1 puromycin (Sigma, Cat # P-7255), in addition to 0.4 mg ml^−1 Geneticin G418 and 0.1 mg ml^−1 hygromycin. Several cell lines were identified that gave robust levels of Cav2.2 α/β3/α2δ1-mediated current expression and one of these was selected for compound profiling. Expression of all three subunits within this cell line was continuously maintained by the inclusion of G418 (0.4 mg ml^−1), hygromycin (0.1 mg ml^−1) and puromycin (0.62 μg ml^−1). Cells were maintained at 37° C. in a humidified environment containing 5% CO2 in air. Cells were liberated from the T175 culture flasks for passage and harvesting using TrpLE (Invitrogen, Cat # 12604-013).
Cells were grown to 30-60% confluence in T175 flasks and maintained at 30° C. for 24 hrs prior to recording. Cells were lifted by removing the growth media, washing with Ca^2+ free PBS (Invitrogen, Cat #14190-094) and incubating with 3 ml of warmed (37° C.) TrpLE (Invitrogen, Cat # 12604-013) for 6 minutes. Lifted cells were suspended in 10 ml of extracellular buffer. Cell suspension was then placed into a 15 ml tube and centrifuged for 2 minutes at 700 rpm. After centrifugation, the supernatant was removed and the cell pellet was resuspended in 4.5 ml of extracellular solution.
Currents were recorded at room temperature (21-23° C.) using the IonWorks planar array electrophysiology technology (Molecular Devices Corp.). Stimulation protocols and data acquisition were carried out using a microcomputer (Dell Pentium 4). In order to determine planar electrode hole resistances (Rp), a 10 mV, 160 ms potential difference was applied across each hole. These measurements were performed before cell addition. After cell addition a seal test was performed prior to antibiotic (amphotericin) circulation to achieve intracellular access. Leak subtraction was conducted in all experiments by applying a 160 ms hyperpolarizing (10 mV) prepulse 200 ms before the test pulses to measure leak conductance. Test pulses stepping from the holding potential (VH) of −90 mV to +10 mV were applied for 20 ms and repeated 10 times at a frequency of 10 Hz. In all experiments, the test pulse protocol was performed in the absence (pre-read) and presence (post-read) of a compound. Pre- and post-reads were separated by a compound addition followed by a 3-3.5 min incubation. […]
In the case of `Cc1cccnc1C(=O)N1CCN(S(=O)(=O)c2ccc(C(F)(F)F)cc2)C[C@@H]1C` [Example 1, (2S)-2-Methyl-1-[(3-methyl-2-pyridinyl)carbonyl]-4-{[4-(trifluoromethyl)phenyl]sulfonyl}piperazine hydrochloride], the IC50 was at least 31.6 µM.
The same measure for `Cc1cccc(C(=O)N2CCN(S(=O)(=O)c3ccc(C(F)(F)F)cc3)CC2)n1` [Example 2, 1-[(6-Methyl-2-pyridinyl)carbonyl]-4-{[4-(trifluoromethyl)phenyl]sulfonyl}piperazine]: at least 31.6 µM; for `Cc1cccnc1C(=O)N1CCN(S(=O)(=O)c2ccc(C(F)(F)F)cc2)CC1` [Example 3, 1-[(3-Methyl-2-pyridinyl)carbonyl]-4-{[4-(trifluoromethyl)phenyl]sulfonyl}piperazine]: at least 31.6 µM; for `C[C@H]1CN(S(=O)(=O)c2ccc(C(F)(F)F)cc2)CCN1C(=O)c1ccccn1` [Example 4, (2S)-2-methyl-1-(2-pyridinylcarbonyl)-4-{[4-(trifluoromethyl)phenyl]sulfonyl}piperazine formic acid salt (1:1)]: at least 31.6 µM.
The result for `O=C(c1cc(-c2ccccn2)ccn1)N1CCN(S(=O)(=O)c2ccc(C(F)(F)F)cc2)CC1` [Example 5, 2′-[(4-{[4-(Trifluoromethyl)phenyl]sulfonyl}-1-piperazinyl)carbonyl]-2,4′-bipyridine] reads at least 31.6 µM; that for `C[C@H]1CN(C(=O)c2ccccn2)CCN1S(=O)(=O)c1ccc(Cl)cc1` [Example 6, (2S)-1-[(4-Chlorophenyl)sulfonyl]-2-methyl-4-(2-pyridinylcarbonyl)piperazine hydrochloride], at least 31.6 µM; that for `O=C(c1ccc(-c2ccccn2)cn1)N1CCN(S(=O)(=O)c2ccc(C(F)(F)F)cc2)CC1` [Example 7, 6′[(4-{[4-(Trifluoromethyl)phenyl]sulfonyl}-1-piperazinyl)carbonyl]-2,3′-bipyridine], at least 31.6 µM.
The result for `O=C(c1ccncc1)N1CCN(S(=O)(=O)c2ccc(C(F)(F)F)cc2)CC1` [Example 8, 1-(4-Pyridinylcarbonyl)-4-{[4-(trifluoromethyl)phenyl]sulfonyl}piperazine] reads at least 31.6 µM; that for `Cc1cc(C(=O)N2CCN(S(=O)(=O)c3ccc(C(F)(F)F)cc3)CC2)ccn1` [Example 9, 1-[(2-Methyl-4-pyridinyl)carbonyl]-4-{[4-(trifluoromethyl)phenyl]sulfonyl}piperazine], at least 31.6 µM.
On to `Cc1cc(C(=O)N2CCN(S(=O)(=O)c3ccc(C(F)(F)F)cc3)C[C@@H]2C)ccn1` [Example 10, (2S)-2-methyl-1-[(2-methyl-4-pyridinyl)carbonyl]-4-{[4-(trifluoromethyl)phenyl]sulfonyl}piperazine formic acid salt (1:1)], for which the IC50 is at least 31.6 µM.
Consider `C[C@@H]1CN(S(=O)(=O)c2ccc(Cl)cc2)CCN1C(=O)c1ccccn1` [Example 11, (2R)-4-[(4-chlorophenyl)sulfonyl]-2-methyl-1-(2-pyridinylcarbonyl)piperazine], for which the IC50 was at least 31.6 µM.
The result for `C[C@H]1CN(S(=O)(=O)c2ccc(C#N)cc2)CCN1C(=O)c1ccccn1` [Example 12, 4-{[(3S)-3-methyl-4-(2-pyridinylcarbonyl)-1-piperazinyl]sulfonyl}benzonitrile] reads at least 31.6 µM; that for `Cc1cccnc1C(=O)N1CCN(S(=O)(=O)c2ccc(C(F)(F)F)cc2)[C@H](C)C1` [Example 13, (2R)-2-methyl-4-[(3-methyl-2-pyridinyl)carbonyl]-1-{[4-(trifluoromethyl)phenyl]sulfonyl}piperazine], at least 31.6 µM; that for `Cc1cccnc1C(=O)N1CCN(S(=O)(=O)c2ccc(C(F)(F)F)cc2)[C@@H](C)C1` [Example 14, (2S)-2-methyl-4-[(3-methyl-2-pyridinyl)carbonyl]-1-{[4-(trifluoromethyl)phenyl]sulfonyl}piperazine], at least 31.6 µM.
The same measure for `Cc1cc(C(=O)N2CCN(S(=O)(=O)c3ccc(C#N)cc3)C[C@@H]2C)ccn1` [Example 15, 4-({(3S)-3-methyl-4-[(2-methyl-4-pyridinyl)carbonyl]-1-piperazinyl}sulfonyl)benzonitrile]: at least 31.6 µM.
